{"source": "patent US6872729B2", "about": "“Pyrimidinylbenzimidazole and triazinylbenzimidazole derivatives and agricultural/horticultural fungicides” (Kumiai Chemical Industry Co., Ltd., priority 1998, dated 2005)"}
{"test_system": "Erysiphe graminis", "assay": "Test for preventive effect on wheat powdery mildew", "type": "in vivo", "conditions": "wheat (Norin-61-go) seedlings, 500 ppm active ingredient, preventive treatment; diseased area of first leaves 10 days after inoculation with Erysiphe graminis", "method_in_brief": "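Wheat seedlings (Norin-61-go), grown 8 days, were sprayed with wettable-powder solutions at 500 ppm active ingredient, air-dried, then inoculated by sprinkling Erysiphe graminis spores. Plants were kept at 20-25° C. Diseased area on first leaves was scored 10 days post-inoculation against a rating standard.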"}
{"smiles": "COc1nc(C)nc(-n2c(N)nc3cc(C)ccc32)n1", "note": "[Compound I-767]", "Biological effectiveness": "B (Diseased area of less than 25%)"}
{"smiles": "CCOc1cc(OCC)nc(-n2c(Cl)nc3cc(OC)ccc32)n1", "note": "[Compound I-531]", "Biological effectiveness": "A (No diseased area)"}
{"smiles": "COc1ccnc(-n2c(C(F)(F)F)nc3cc(Cl)ccc32)n1", "note": "[Compound I-682]", "Biological effectiveness": "A (No diseased area)"}
{"smiles": "COc1cc(OC)nc(-n2c(C)nc3ccc(C)cc32)n1", "note": "[Compound I-202]", "Biological effectiveness": "B (Diseased area of less than 25%)"}
{"smiles": "CCCc1cc(OC)nc(-n2c(Cl)nc3ccccc32)n1", "note": "[Compound I-960]", "Biological effectiveness": "A (No diseased area)"}
{"smiles": "Cc1cc(C)nc(-n2cnc3ccccc32)n1", "note": "[Compound I-1079]", "Biological effectiveness": "B (Diseased area of less than 25%)"}
{"smiles": "COc1nc(OC)nc(-n2c(C)nc3c(C)cccc32)n1", "note": "[Compound I-212]", "Biological effectiveness": "B (Diseased area of less than 25%)"}
{"smiles": "COc1nc(OC)nc(-n2c(C(F)(F)F)nc3cc(Cl)ccc32)n1", "note": "[Compound I-310]", "Biological effectiveness": "A (No diseased area)"}
{"smiles": "COc1cc(OC)nc(-n2c(N(C)C)nc3ccccc32)n1", "note": "[Compound I-30]", "Biological effectiveness": "B (Diseased area of less than 25%)"}
{"smiles": "COc1nc(OC)nc(-n2c(C)nc3c(C)cc(C)cc32)n1", "note": "[Compound I-250]", "Biological effectiveness": "B (Diseased area of less than 25%)"}
{"smiles": "COc1cc(OC)nc(-n2c(Cl)nc3ccc(C)cc32)n1", "note": "[Compound I-272]", "Biological effectiveness": "A (No diseased area)"}
{"smiles": "COc1cc(OC)nc(-n2cnc3ccc(C)cc32)n1", "note": "[Compound I-114]", "Biological effectiveness": "B (Diseased area of less than 25%)"}
{"smiles": "COc1cc(OC)nc(-n2c(C(Cl)(Cl)Cl)nc3cc(Cl)ccc32)n1", "note": "[Compound I-400]", "Biological effectiveness": "A (No diseased area)"}
{"smiles": "CCCc1cc(OC)nc(-n2cnc3ccccc32)n1", "note": "[Compound I-958]", "Biological effectiveness": "B (Diseased area of less than 25%)"}
{"smiles": "COc1cc(OC)nc(-n2c(C(Cl)(Cl)Cl)nc3ccccc32)n1", "note": "[Compound I-25]", "Biological effectiveness": "A (No diseased area)"}
{"smiles": "COc1ccnc(-n2cnc3cc(Cl)ccc32)n1", "note": "[Compound I-669]", "Biological effectiveness": "B (Diseased area of less than 25%)"}
{"smiles": "CCOc1cc(OCC)nc(-n2c(C)nc3cc(OC)ccc32)n1", "note": "[Compound I-503]", "Biological effectiveness": "A (No diseased area)"}
{"smiles": "CCOc1nc(OCC)nc(-n2c(C(F)(F)F)nc3cc(Cl)ccc32)n1", "note": "[Compound I-545]", "Biological effectiveness": "A (No diseased area)"}
{"smiles": "CCCc1nc2cc(Cl)ccc2n1-c1nc(OC)nc(OC)n1", "note": "[Compound I-358]", "Biological effectiveness": "A (No diseased area)"}
{"smiles": "COc1nc(C)nc(-n2c(Cl)nc3cc(C)ccc32)n1", "note": "[Compound I-758]", "Biological effectiveness": "A (No diseased area)"}
{"smiles": "COc1cc(OC)nc(-n2c(C(F)(F)F)nc3cc(F)ccc32)n1", "note": "[Compound I-295]", "Biological effectiveness": "A (No diseased area)"}
{"smiles": "CCOc1cc(OCC)nc(-n2c(C)nc3ccc(Cl)cc32)n1", "note": "[Compound I-508]", "Biological effectiveness": "B (Diseased area of less than 25%)"}
{"smiles": "COc1cc(OC)nc(-n2c(Cl)nc3cc(C(F)(F)F)ccc32)n1", "note": "[Compound I-259]", "Biological effectiveness": "A (No diseased area)"}
{"smiles": "CSc1nc(C)nc(-n2c(C(F)(F)F)nc3cc(C)ccc32)n1", "note": "[Compound I-1048]", "Biological effectiveness": "A (No diseased area)"}
{"smiles": "COc1cc(OC)nc(-n2c(C)nc3ccc(F)cc32)n1", "note": "[Compound I-200]", "Biological effectiveness": "A (No diseased area)"}
{"smiles": "COc1nc(OC)nc(-n2c(C)nc3cc(C(C)(C)C)ccc32)n1", "note": "[Compound I-222]", "Biological effectiveness": "B (Diseased area of less than 25%)"}
{"smiles": "CCCc1ccc2c(c1)nc(C(F)(F)F)n2-c1nc(OC)nc(OC)n1", "note": "[Compound I-314]", "Biological effectiveness": "A (No diseased area)"}
{"smiles": "CCOc1ccnc(-n2c(C(F)(F)F)nc3cc(Cl)ccc32)n1", "note": "[Compound I-704]", "Biological effectiveness": "B (Diseased area of less than 25%)"}
{"smiles": "COc1cc(OC)nc(-n2c(C)nc3c(C)cccc32)n1", "note": "[Compound I-181]", "Biological effectiveness": "B (Diseased area of less than 25%)"}
{"smiles": "COc1cc(OC)nc(-n2c(Br)nc3ccccc32)n1", "note": "[Compound I-3]", "Biological effectiveness": "A (No diseased area)"}
{"smiles": "COc1nc(OC)nc(-n2c(C)nc3cc(C(F)(F)F)ccc32)n1", "note": "[Compound I-225]", "Biological effectiveness": "A (No diseased area)"}
{"smiles": "CCOc1nc(OC)nc(-n2c(C)nc3cc(Cl)ccc32)n1", "note": "[Compound I-438]", "Biological effectiveness": "A (No diseased area)"}
{"smiles": "COc1nc(OC)nc(-n2c(C3CC3)nc3cc(Cl)ccc32)n1", "note": "[Compound I-360]", "Biological effectiveness": "B (Diseased area of less than 25%)"}
{"smiles": "CCOc1cc(OCC)nc(-n2c(C)nc3ccc(OC)cc32)n1", "note": "[Compound I-511]", "Biological effectiveness": "A (No diseased area)"}
{"smiles": "Cc1nc2cc(Cl)ccc2n1-c1nc(OC(C)C)nc(OC(C)C)n1", "note": "[Compound I-592]", "Biological effectiveness": "A (No diseased area)"}
{"smiles": "COc1nc(OC)nc(-n2c(C)nc3ccccc32)n1", "note": "[Compound I-45]", "Biological effectiveness": "A (No diseased area)"}
{"smiles": "COc1cc(OC)nc(-n2c(C)nc3ccc(C(=O)c4ccccc4)cc32)n1", "note": "[Compound I-208]", "Biological effectiveness": "B (Diseased area of less than 25%)"}
{"smiles": "C#CCOc1cc(C)nc(-n2cnc3ccccc32)n1", "note": "[Compound I-894]", "Biological effectiveness": "B (Diseased area of less than 25%)"}
{"smiles": "CCOc1cc(C)nc(-n2c(C)nc3cc(C)ccc32)n1", "note": "[Compound I-775]", "Biological effectiveness": "A (No diseased area)"}
{"smiles": "COc1nc(OC)nc(-n2c(C)nc3cc(F)ccc32)n1", "note": "[Compound I-214]", "Biological effectiveness": "A (No diseased area)"}
{"smiles": "CCOc1cc(OCC)nc(-n2cnc3cc(F)ccc32)n1", "note": "[Compound I-479]", "Biological effectiveness": "A (No diseased area)"}
{"smiles": "COc1cc(OC)nc(-n2cnc3cc(F)ccc32)n1", "note": "[Compound I-82]", "Biological effectiveness": "A (No diseased area)"}
{"smiles": "COc1cc(OC)nc(-n2c(C(F)(F)F)nc3cc(C(F)(F)F)ccc32)n1", "note": "[Compound I-299]", "Biological effectiveness": "A (No diseased area)"}
{"smiles": "COC(=O)c1ccc2c(c1)nc(C)n2-c1nc(OC)nc(OC)n1", "note": "[Compound I-232]", "Biological effectiveness": "B (Diseased area of less than 25%)"}
{"smiles": "Cc1cc(OC(C)C)nc(-n2c(C)nc3ccccc32)n1", "note": "[Compound I-840]", "Biological effectiveness": "B (Diseased area of less than 25%)"}
{"smiles": "COc1cc(OC)nc(-n2c(N)nc3ccc(C)cc32)n1", "note": "[Compound I-366]", "Biological effectiveness": "A (No diseased area)"}
{"smiles": "CCOc1cc(OCC)nc(-n2c(C)nc3cc(Cl)ccc32)n1", "note": "[Compound I-499]", "Biological effectiveness": "A (No diseased area)"}
{"smiles": "COc1cc(OC)nc(-n2c(SC)nc3cc(C)ccc32)n1", "note": "[Compound I-389]", "Biological effectiveness": "B (Diseased area of less than 25%)"}
{"smiles": "COc1nc(OC)nc(-n2c(C)nc3cc(Br)ccc32)n1", "note": "[Compound I-216]", "Biological effectiveness": "A (No diseased area)"}
{"smiles": "CCOc1cc(OCC)nc(-n2c(C)nc3ccc(F)cc32)n1", "note": "[Compound I-507]", "Biological effectiveness": "A (No diseased area)"}
{"smiles": "COc1cc(OC)nc(-n2c(SC)nc3cc(Cl)ccc32)n1", "note": "[Compound I-388]", "Biological effectiveness": "A (No diseased area)"}
{"smiles": "COc1cc(OC)nc(-n2c(C)nc3cc(Br)ccc32)n1", "note": "[Compound I-185]", "Biological effectiveness": "A (No diseased area)"}
{"smiles": "COc1cc(OC)nc(-n2c(C(F)(F)F)nc3cc(Cl)ccc32)n1", "note": "[Compound I-296]", "Biological effectiveness": "A (No diseased area)"}
{"smiles": "Cc1cc(C2CC2)nc(-n2c(C)nc3cc(Cl)ccc32)n1", "note": "[Compound I-1104]", "Biological effectiveness": "B (Diseased area of less than 25%)"}
